Reference: US20100010219A1, “METHOD FOR PRODUCING PYRROLIDINE COMPOUND” (JAPAN TOBACCO INC., priority 2006, published 2010)
Counter-ions that a name gives are not always drawn.

Molecular target: T1, human HSD-1 (recombinant HSD-1) (Homo sapiens, UniProt P28845)
T1 construct: made in house
Assay: HSD-1 activity inhibitory action in vitro (SPA, conversion of cortisone to cortisol)
Assay type: biochemical
Settings: recombinant human HSD-1 expressed using baculovirus system; 10 nM 3H cortisone, 500 μM NADPH; room temperature 90 to 120 min; read-out: hHSD1 (IC50 (nM))

T1 sequence (P28845 whole entry): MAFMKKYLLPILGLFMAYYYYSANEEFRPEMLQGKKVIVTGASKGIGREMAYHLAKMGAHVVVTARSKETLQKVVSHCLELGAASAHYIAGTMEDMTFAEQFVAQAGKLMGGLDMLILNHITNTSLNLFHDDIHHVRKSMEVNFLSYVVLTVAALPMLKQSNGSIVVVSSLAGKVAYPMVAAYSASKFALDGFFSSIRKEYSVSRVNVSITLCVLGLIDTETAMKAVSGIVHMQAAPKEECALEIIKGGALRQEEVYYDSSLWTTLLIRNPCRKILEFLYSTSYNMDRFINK

| SMILES | IC50 [nM] |
| --- | --- |
| C[C@@H]1CN(C(=O)c2cnn(C3CCN(c4ncccn4)CC3)c2C2(C)CC2)C[C@H]1c1ccccc1 (relative stereo) [Example 177, {(3S*,4R*)-3-methyl-1-{5-(1-methylcyclopropyl)-1-[1-(pyrimidin-2-yl)piperidin-4-yl]-1H-pyrazole-4-carbonyl}-4-phenylpyrrolidine hydrochloride] | < 30 |
| CC1(c2c(C(=O)N3CCC(CO)(c4ccc(F)cc4)C3)cnn2C2CCN(c3ncccn3)CC2)CC1 (single isomer, unassigned; (+)) [Example 128, (+)-3-(4-fluorophenyl)-3-hydroxymethyl-1-{5-(1-methylcyclopropyl)-1-[1-(pyrimidin-2-yl)piperidin-4-yl]-1H-pyrazole-4-carbonyl}pyrrolidine hydrochloride] | < 30 |
| O=C(Nc1ccccc1F)N1CCC(n2ncc(C(=O)N3CCC(c4cccnc4)C3)c2C2CC2)CC1 (stereo not drawn) [Example 3, 1-{5-cyclopropyl-1-[1-(2-fluorophenylcarbamoyl)piperidin-4-yl]-1H-pyrazole-4-carbonyl}-3-(pyridin-3-yl)pyrrolidine] | < 30 |
| O=C(Nc1ccccc1CO)N1CCC(n2ncc(C(=O)N3CC[C@@H](c4ccccc4C(F)(F)F)C3)c2C2CC2)CC1 [Example 6, 1-{5-cyclopropyl-1-[1-(2-hydroxymethylphenylcarbamoyl)piperidin-4-yl]-1H-pyrazole-4-carbonyl}-[(S)-3-(2-trifluoromethylphenyl)]pyrrolidine] | < 30 |
| CC(=O)NCCNC(=O)N1CCC(n2ncc(C(=O)N3CC[C@@H](c4ccccc4C(F)(F)F)C3)c2C2CC2)CC1 [Example 10, 1-{1-[1-(2-acetylaminoethylcarbamoyl)piperidin-4-yl]-5-cyclopropyl-1H-pyrazole-4-carbonyl}-[(S)-3-(2-trifluoromethylphenyl)]pyrrolidine] | < 30 |
| O=C(c1cnn(C2CCN(C(=O)N3CCS(=O)(=O)CC3)CC2)c1C1CC1)N1CC[C@@H](c2ccccc2C(F)(F)F)C1 [Example 12, 1-{5-cyclopropyl-1-[1-(1,1-dioxothiomorpholine-4-carbonyl)piperidin-4-yl]-1H-pyrazole-4-carbonyl}-[(S)-3-(2-trifluoromethylphenyl)]pyrrolidine] | < 30 |
| O=C(c1cnn(C2CCN(C(=O)N3CCC(O)CC3)CC2)c1C1CC1)N1CC[C@@H](c2ccccc2C(F)(F)F)C1 [Example 14, 1-{5-cyclopropyl-1-[1-(4-hydroxypiperidine-1-carbonyl)piperidin-4-yl]-1H-pyrazole-4-carbonyl}-[(S)-3-(2-trifluoromethylphenyl)]pyrrolidine] | < 30 |
| O=C(NCCN1CCCCC1)N1CCC(n2ncc(C(=O)N3CC[C@@H](c4ccccc4C(F)(F)F)C3)c2C2CC2)CC1 [Example 17, 1-{5-cyclopropyl-1-[1-(2-piperidin-1-yl-ethylcarbamoyl)piperidin-4-yl]-1H-pyrazole-4-carbonyl}-[(S)-3-(2-trifluoromethylphenyl)]pyrrolidine hydrochloride] | < 30 |
| O=C(c1cnn(C2CCN(C(=O)N3CCC(F)(F)CC3)CC2)c1C1CC1)N1CC[C@@H](c2ccccc2C(F)(F)F)C1 [Example 18, 1-{5-cyclopropyl-1-[1-(4,4-difluoropiperidine-1-carbonyl)piperidin-4-yl]-1H-pyrazole-4-carbonyl}-[(S)-3-(2-trifluoromethylphenyl)]pyrrolidine] | < 30 |
| O=C(c1cnn(C2CCN(C(=O)N3CCC(F)(F)C3)CC2)c1C1CC1)N1CC[C@@H](c2ccccc2C(F)(F)F)C1 [Example 19, 1-{5-cyclopropyl-1-[1-(3,3-difluoropyrrolidine-1-carbonyl)piperidin-4-yl]-1H-pyrazole-4-carbonyl}-[(S)-3-(2-trifluoromethylphenyl)]pyrrolidine] | < 30 |
| O=C(c1cnn(C2CCN(C(=O)N3CCC(CO)CC3)CC2)c1C1CC1)N1CC[C@@H](c2ccccc2C(F)(F)F)C1 [Example 24, 1-{5-cyclopropyl-1-[1-(4-hydroxymethylpiperidine-1-carbonyl)piperidin-4-yl]-1H-pyrazole-4-carbonyl}-[(S)-3-(2-trifluoromethylphenyl)]pyrrolidine] | < 30 |
| O=C(O)C1CCN(C(=O)N2CCC(n3ncc(C(=O)N4CC[C@@H](c5ccccc5C(F)(F)F)C4)c3C3CC3)CC2)CC1 [Example 25, 1-{1-[1-(4-carboxypiperidine-1-carbonyl)piperidin-4-yl]-5-cyclopropyl-1H-pyrazole-4-carbonyl}-[(S)-3-(2-trifluoromethylphenyl)]pyrrolidine] | < 30 |
| O=C(c1cnn(C2CCN(C(=O)N3CCC[C@H]3CO)CC2)c1C1CC1)N1CC[C@@H](c2ccccc2C(F)(F)F)C1 [Example 27, 1-(5-cyclopropyl-1-{1-[(S)-2-hydroxymethylpyrrolidine-1-carbonyl]piperidin-4-yl}-1H-pyrazole-4-carbonyl)-[(S)-3-(2-trifluoromethylphenyl)]pyrrolidine] | < 30 |

Further lines, results first:

| IC50 [nM] | SMILES |
| --- | --- |
| < 30 | O=C(c1cnn(C2CCNCC2)c1C1CC1)N1CC[C@@H](c2ccccc2C(F)(F)F)C1 [Example 2, 1-[5-cyclopropyl-1-(piperidin-4-yl)-1H-pyrazole-4-carbonyl]-[(S)-3-(2-trifluoromethylphenyl)]pyrrolidine hydrochloride] |
| < 30 | NC(=O)N1CCC(n2ncc(C(=O)N3CC[C@@H](c4ccccc4C(F)(F)F)C3)c2C2CC2)CC1 [Example 4, 1-[1-(1-carbamoylpiperidin-4-yl)-5-cyclopropyl-1H-pyrazole-4-carbonyl]-[(S)-3-(2-trifluoromethylphenyl)]pyrrolidine] |
| < 30 | O=C(NC1(CO)CC1)N1CCC(n2ncc(C(=O)N3CC[C@@H](c4ccccc4C(F)(F)F)C3)c2C2CC2)CC1 [Example 7, 1-{5-cyclopropyl-1-[1-(1-hydroxymethylcyclopropylcarbamoyl)piperidin-4-yl]-1H-pyrazole-4-carbonyl}-[(S)-3-(2-trifluoromethylphenyl)]pyrrolidine] |
| < 30 | O=C(NCCO)N1CCC(n2ncc(C(=O)N3CC[C@@H](c4ccccc4C(F)(F)F)C3)c2C2CC2)CC1 [Example 8, 1-{5-cyclopropyl-1-[1-(2-hydroxyethylcarbamoyl)piperidin-4-yl]-1H-pyrazole-4-carbonyl}-[(S)-3-(2-trifluoromethylphenyl)]pyrrolidine] |
| < 30 | CC(C)(CO)NC(=O)N1CCC(n2ncc(C(=O)N3CC[C@@H](c4ccccc4C(F)(F)F)C3)c2C2CC2)CC1 [Example 9, 1-{5-cyclopropyl-1-[1-(2-hydroxy-1,1-dimethylethylcarbamoyl)piperidin-4-yl]-1H-pyrazole-4-carbonyl}-[(S)-3-(2-trifluoromethylphenyl)]pyrrolidine] |
| < 30 | NCCNC(=O)N1CCC(n2ncc(C(=O)N3CC[C@@H](c4ccccc4C(F)(F)F)C3)c2C2CC2)CC1 [Example 11, 1-{1-[1-(2-aminoethylcarbamoyl)piperidin-4-yl]-5-cyclopropyl-1H-pyrazole-4-carbonyl}-[(S)-3-(2-trifluoromethylphenyl)]pyrrolidine hydrochloride] |
| < 30 | CN(C)CCNC(=O)N1CCC(n2ncc(C(=O)N3CC[C@@H](c4ccccc4C(F)(F)F)C3)c2C2CC2)CC1 [Example 13, 1-{5-cyclopropyl-1-[1-(2-dimethylaminoethylcarbamoyl)piperidin-4-yl]-1H-pyrazole-4-carbonyl}-[(S)-3-(2-trifluoromethylphenyl)]pyrrolidine hydrochloride] |
| < 30 | O=C(c1cnn(C2CCN(C(=O)N3CCC3)CC2)c1C1CC1)N1CC[C@@H](c2ccccc2C(F)(F)F)C1 [Example 15, 1-{1-[1-(azetidine-1-carbonyl)piperidin-4-yl]-5-cyclopropyl-1H-pyrazole-4-carbonyl}-[(S)-3-(2-trifluoromethylphenyl)]pyrrolidine] |
| < 30 | O=C(c1cnn(C2CCN(C(=O)N3CCC(O)C3)CC2)c1C1CC1)N1CC[C@@H](c2ccccc2C(F)(F)F)C1 (stereo partly drawn) [Example 16, 1-{5-cyclopropyl-1-[1-(3-hydroxypyrrolidine-1-carbonyl)piperidin-4-yl]-1H-pyrazole-4-carbonyl}-[(S)-3-(2-trifluoromethylphenyl)]pyrrolidine] |
| < 30 | O=C(c1cnn(C2CCN(C(=O)N3CC(O)C3)CC2)c1C1CC1)N1CC[C@@H](c2ccccc2C(F)(F)F)C1 [Example 20, 1-{5-cyclopropyl-1-[1-(3-hydroxyazetidine-1-carbonyl)piperidin-4-yl]-1H-pyrazole-4-carbonyl}-[(S)-3-(2-trifluoromethylphenyl)]pyrrolidine] |
| < 30 | O=C(c1cnn(C2CCN(C(=O)N3CC[C@@H](O)C3)CC2)c1C1CC1)N1CC[C@@H](c2ccccc2C(F)(F)F)C1 [Example 21, 1-(5-cyclopropyl-1-{1-[(R)-3-hydroxypyrrolidine-1-carbonyl]piperidin-4-yl}-1H-pyrazole-4-carbonyl)-[(S)-3-(2-trifluoromethylphenyl)]pyrrolidine] |
| < 30 | O=C(c1cnn(C2CCN(C(=O)N3CC[C@H](O)C3)CC2)c1C1CC1)N1CC[C@@H](c2ccccc2C(F)(F)F)C1 [Example 22, 1-(5-cyclopropyl-1-{1-[(S)-3-hydroxypyrrolidine-1-carbonyl]piperidin-4-yl}-1H-pyrazole-4-carbonyl)-[(S)-3-(2-trifluoromethylphenyl)]pyrrolidine] |
| < 30 | C[C@@H](CO)NC(=O)N1CCC(n2ncc(C(=O)N3CC[C@@H](c4ccccc4C(F)(F)F)C3)c2C2CC2)CC1 [Example 23, 1-(5-cyclopropyl-1-{1-[(S)-2-hydroxy-1-methylethylcarbamoyl]piperidin-4-yl}-1H-pyrazole-4-carbonyl)-[(S)-3-(2-trifluoromethylphenyl)]pyrrolidine] |
| < 30 | O=C1CN(C(=O)N2CCC(n3ncc(C(=O)N4CC[C@@H](c5ccccc5C(F)(F)F)C4)c3C3CC3)CC2)CCN1 [Example 26, 1-{5-cyclopropyl-1-[1-(3-oxopiperazine-1-carbonyl)piperidin-4-yl]-1H-pyrazole-4-carbonyl}-[(S)-3-(2-trifluoromethylphenyl)]pyrrolidine] |
